Test results published in patent US20250326725A1, “PI4-Kinase Inhibitors and Methods of Using the Same” (The Board of Trustees of the Leland Stanford Junior …, priority 2019, published 2025).
pEC50: −log10 of the molar value.

What was measured:
[1] = system: HCV; assay: Anti-HCV assay (EC50); format: cell-based; conditions: Hepatitis C virus, read-out: HCV EC50
Procedure: Anti-HCV assay: Anti-HCV assays are performed as described by Cho et al. “Identification of a class of HCV inhibitors directed against the nonstructural protein NS4B.” Sci. Transl. Med. 2011; 2(15):15ra6.

[2] = system: EV71; assay: EV71 antiviral assay (EC50); format: cell-based, Enterovirus 71; conditions: Enterovirus A, EV71
[3] = Cell toxicity (CC50) in HRV assay; conditions: human, HRV CC50
[4] = Cell toxicity (CC50) in EV71 assay; conditions: EV71 CC50
[5] = system: EV68; assay: EV68 antiviral assay (EC50); format: cell-based
[6] = Cell toxicity (CC50) in EV68 assay; conditions: EV68 CC50

Row | SMILES | pEC50 [1] | pEC50 [2] | CC50 [3] [µM] | CC50 [4] [µM] | pEC50 [5] | CC50 [6] [µM]
1 | COc1ccc(-c2sc(NC(C)(C)C3CCOCC3)nc2C)cc1S(=O)(=O)Nc1ccc(Br)nc1F [Compound S-2] | 8.64 | 9.10 | 33.4 | 66.6 |  | 
2 | COc1ccc(-c2sc(NC(C)(C)C3CCOCC3)nc2C)cc1S(=O)(=O)NC1CCC(O)CC1 (stereo not drawn) [Compound S-5] | 8.77 | 9.10 | 57 | 47.2 |  | 
3 | COc1ccc(-c2sc(NC(C)(C)C3CCOCC3)nc2C)cc1S(=O)(=O)Nc1ccc(F)cc1C [Compound S-8] | 9.10 | 9.52 | 8.47 | 91.9 |  | 
4 | COc1ccc(-c2sc(NC(C)(C)C3CCOCC3)nc2C)cc1S(=O)(=O)NC1CCN(C(=O)OC(C)(C)C)CC1 [Compound S-9] | 8.30 | 8.32 | 100 | 69.3 | 7.54 | 100
5 | COc1ccc(-c2sc(NC(C)(C)C3CCOCC3)nc2C)cc1S(=O)(=O)NC1CCS(=O)(=O)CC1 [Compound S-11] | 7.24 | 8.14 | 40.7 | 26 | 5.42 | 43.3
6 | COc1ccc(-c2sc(NC(C)(C)C3CCOCC3)nc2C)cc1S(=O)(=O)NC1CCN(C(C)=O)CC1 [Compound S-12] | 7.76 | 8.39 | 65.9 | 53.8 | 6.97 | 66.2
7 | COc1ccc(-c2sc(NC(C)(C)C3CCOCC3)nc2C)cc1S(=O)(=O)NC1CCN(S(C)(=O)=O)CC1 [Compound S-13] | 8.09 | 8.89 | 102 | 99.4 | 7.41 | 102
8 | COc1ccc(-c2sc(NC(C)(C)C3CCOCC3)nc2C)cc1S(=O)(=O)Nc1cccnc1C(F)(F)F [Compound S-15] | 7.09 | 7.19 | 100 | 100 | 6.47 | 63.7
9 | COc1ccc(-c2sc(NC3(C4CCOCC4)CC3)nc2C)cc1S(=O)(=O)Nc1cccnc1C [Compound S-16] | 6.17 | 6.25 | 38.3 | 21.2 | 5.68 | 39.2
10 | COc1ccc(-c2sc(NC(C)(C)C3CCOCC3)nc2C)cc1S(=O)(=O)Nc1c(C)ncnc1C [Compound S-17] | 7.97 | 8.43 | 100 | 99.9 | 7.59 | 100
11 | COc1ccc(-c2sc(NC(C)(C)C3CCOCC3)nc2C)cc1S(=O)(=O)Nc1cccnc1OC [Compound S-18] | 7.92 | 8.36 | 62.1 | 43.2 | 7.85 | 80
12 | COc1ccc(-c2sc(NC3(C4CCOCC4)CC3)nc2C)cc1S(=O)(=O)Nc1ccccc1Cl [Compound S-19] | 7.50 | 7.80 | 37.7 | 18.3 | 4.66 | 39.4
13 | COc1ccc(-c2sc(NC(C)(C)C3CCOCC3)nc2C)cc1S(=O)(=O)NC1CCN(C(=O)OC(F)(F)F)CC1 [Compound S-20] | 7.59 | 8.44 | 49.4 | 18.9 | 7.29 | 51.6
14 | COc1ccc(-c2sc(NC(C)(C)C3CCN(C(C)=O)CC3)nc2C)cc1S(=O)(=O)Nc1cccnc1C [Compound S-21] | 8.62 | 8.51 | 87.6 | 91.3 | 7.97 | 94.8
15 | COc1ccc(-c2sc(NC(C)(C)C3CCOCC3)nc2C)cc1S(=O)(=O)Nc1c(F)cccc1CO [Compound S-22] | 8.57 | 9.10 | 15.5 | 16.5 | 8.32 | 19.3
16 | COc1ccc(-c2sc(NC(C)(C)C3CCOCC3)nc2C)cc1S(=O)(=O)Nc1cncnc1C [Compound S-23] | 6.86 | 7.31 | 100 | 100 | 6.10 | 66.1
17 | COc1ccc(-c2sc(NC(C)(C)C3CCOCC3)nc2C)cc1S(=O)(=O)Nc1ncc[nH]1 [Compound S-24] | 8.43 | 8.34 | 9.62 | 73 | 7.95 | 13.4
18 | COc1ccc(-c2sc(NC(C)(C)C3CCOCC3)nc2C)cc1S(=O)(=O)Nc1ncccc1C [Compound S-25] | 7.69 | 7.85 | 24.8 | 90.7 | 7.03 | 24

Row | SMILES | pEC50 [1] | pEC50 [2] | CC50 [3] [µM] | CC50 [4] [µM] | pEC50 [5] | CC50 [6] [µM]
19 | COc1ccc(-c2sc(NC(C)(C)C3CCOCC3)nc2C)cc1S(=O)(=O)Nc1ccncc1C(F)(F)F [Compound S-26] | 7.74 | 8.64 | 38.7 | 88.7 | 5.85 | 39.1
20 | COc1ccc(-c2sc(NC(C)(C)C3CCOCC3)nc2C)cc1S(=O)(=O)Nc1cccc2[nH]cc(Br)c12 [Compound S-27] | 8.64 | 8.44 | 1.41 | 6.23 | 8.23 | 1.76
21 | COc1ccc(-c2sc(NC(C)(C)C3CCOCC3)nc2C)cc1S(=O)(=O)Nc1c(C)cc(F)cc1F [Compound S-28] | 8.31 | 8.38 | 87.4 | 100 | 8.04 | 77.6
22 | COc1ccc(-c2sc(NC(C)(C)C3CCOCC3)nc2C)cc1S(=O)(=O)Nc1nccn1C [Compound S-29] | 8.24 | 8.01 | 98.7 | 100 | 7.41 | 102
23 | COc1ccc(-c2sc(NC(C)(C)C3CCOCC3)nc2C)cc1S(=O)(=O)Nc1ccc(F)cc1C(F)F [Compound S-30] | 7.95 | 8.66 | 3.79 | 20.2 | 7.23 | 6.45
24 | COc1ccc(-c2sc(NC(C)(C)C3CCOCC3)nc2C)cc1S(=O)(=O)Nc1c(F)cccc1C(F)F [Compound S-31] | 9.30 | 9.70 | 52.3 | 70.6 | 9.10 | 61.8
25 | COc1ccc(-c2oc(NC(C)(C)c3ccccc3)nc2C)cc1S(=O)(=O)Nc1cccnc1C [Compound S-33] | 10.00 | 10.00 | 30.5 | 71.3 | 9.15 | 5.23
26 | COc1ccc(-c2sc(NC(C)(C)c3ncccn3)nc2C)cc1S(=O)(=O)Nc1c(C)cccc1F [Compound S-34] | 9.00 | 8.74 | 19.4 | 100 | 8.17 | 22.1
27 | COc1ccc(-c2sc(NC(C)(C)c3ncccn3)nc2C)cc1S(=O)(=O)Nc1ccccc1C(F)(F)F [Compound S-35] | 9.70 | 10.00 | 100 | 100 | 9.22 | 100
28 | COC(=O)N1CCC(NS(=O)(=O)c2cc(-c3sc(NC(C)(C)c4ccccc4)nc3C)ccc2OC)CC1 [Compound S-36] | 10.00 | 10.00 | 30.5 | 71.3 | 9.15 | 5.23
29 | COc1ccc(-c2sc(NC(C)(C)c3ccncc3)nc2C)cc1S(=O)(=O)Nc1c(C)cccc1F [Compound S-37] | 10.00 | 10.00 | 4.39 | 21.8 | 9.30 | 3.88
30 | COc1ccc(-c2sc(NC(C)(C)C3CCOCC3)nc2C)cc1S(=O)(=O)Nc1ccc(NC(C)=O)cc1 [Compound S-40] | 9.70 | 10.12 | 40.8 | 78.1 | 8.92 | 42.7
31 | COc1ccc(-c2sc(NC(C)(C)c3ccccc3)nc2C)cc1S(=O)(=O)NC1CCNCC1 [Compound S-41] | 8.00 | 9.05 | 1.9 | 0.776 | 7.23 | 2.09
32 | COc1ccc(-c2sc(NC(C)(C)c3ccccc3)nc2C)cc1S(=O)(=O)NC1CCN(C=O)CC1 [Compound S-43] | 8.68 | 9.52 | 100 | 17.5 | 8.29 | 100
33 | COc1ccc(-c2sc(NC(C)(C)c3ccccc3)nc2C)cc1S(=O)(=O)Nc1ccncc1C(F)(F)F [Compound S-44] | 7.51 | 8.46 | 32.1 | 18.2 | 5.70 | 33.5
34 | COc1ccc(-c2oc(NC(C)(C)c3ccccc3)nc2C)cc1S(=O)(=O)Nc1ccncc1C [Compound S-46] | 9.05 | 9.40 | 52.4 | 24.5 | 8.59 | 44.5
35 | COc1ccc(-c2oc(NC(C)(C)c3ccccn3)nc2C)cc1S(=O)(=O)Nc1ccncc1C [Compound S-47] | 8.02 | 8.92 | 49.5 | 21.1 | 7.56 | 49.1
36 | COc1ccc(-c2oc(NC(C)(C)c3cccnc3)nc2C)cc1S(=O)(=O)Nc1ccncc1C [Compound S-48] | 7.13 | 8.35 | 100 | 100 | 6.66 | 100
